ChEMBL document CHEMBL3739277, “Design, synthesis, and antibacterial evaluation of novel azolylthioether quinolones as MRSA DNA intercalators” (2015)
In brackets after ≈: the same amount, converted by molar mass. Activity calls are given as the source filed them. No cut-off for these calls is given here.

Assays:
Bacillus subtilis = assay: Antibacterial activity against Bacillus subtilis ATCC6633 assessed as growth inhibition incubated at 37 degC for 24 hrs by micro broth dilution method; type: functional; conditions: ATCC6633, 24 h
Aspergillus flavus = assay: Antifungal activity against Aspergillus flavus ATCC204304 assessed as growth inhibition incubated at 35 degC for 24 hrs by micro broth dilution method; type: functional; conditions: ATCC204304, 24 h
Staphylococcus aureus [1] = assay: Antibacterial activity against Staphylococcus aureus ATCC25923 assessed as growth inhibition incubated at 37 degC for 24 hrs by micro broth dilution method; type: functional; conditions: ATCC25923, 24 h
Pseudomonas aeruginosa [2] = assay: Potency index, ratio of clinafloxacin MIC to compound MIC for Pseudomonas aeruginosa ATCC27853; type: functional
Saccharomyces cerevisiae = assay: Antifungal activity against Saccharomyces cerevisiae ATCC9763 assessed as growth inhibition incubated at 35 degC for 24 hrs by micro broth dilution method; type: functional; conditions: ATCC9763, 24 h
[3] = Antifungal activity against Candida mycoderma ATCC9888 assessed as growth inhibition incubated at 35 degC for 24 hrs by micro broth dilution method; type: functional; conditions: Kregervanrija fluxuum
Pseudomonas aeruginosa [4] = assay: Potency index, ratio of chloramphenicol MIC to compound MIC for Pseudomonas aeruginosa ATCC27853; type: functional
[5] = Binding affinity to Cu2+ ion assessed as 1:1 compound-Cu2+ complex formation by fluorescence spectroscopy
[6] = Antibacterial activity against Bacillus proteus ATCC13315 assessed as growth inhibition incubated at 37 degC for 24 hrs by micro broth dilution method; type: functional; conditions: ATCC13315, 24 h
Escherichia coli = assay: Antibacterial activity against Escherichia coli JM109 assessed as growth inhibition incubated at 37 degC for 24 hrs by micro broth dilution method; type: functional; conditions: JM109, 24 h
Cyberlindnera jadinii = assay: Antifungal activity against Candida utilis ATCC9950 assessed as growth inhibition incubated at 35 degC for 24 hrs by micro broth dilution method; type: functional; conditions: Williopsis jadinii, ATCC9950, 24 h
Pseudomonas aeruginosa [7] = assay: Antibacterial activity against Pseudomonas aeruginosa ATCC27853 assessed as growth inhibition incubated at 37 degC for 24 hrs by micro broth dilution method; type: functional; conditions: ATCC27853, 24 h
Staphylococcus aureus [8] = assay: Binding affinity to methicillin-resistant Staphylococcus aureus DNA assessed as induction of DNA intercalation by UV-visible spectroscopy
[9] = Antibacterial activity against Eberthella typhosa ATCC14028 assessed as growth inhibition incubated at 37 degC for 24 hrs by micro broth dilution method; type: functional; conditions: ATCC14028, 24 h
Micrococcus luteus = assay: Antibacterial activity against Micrococcus luteus ATCC4698 assessed as growth inhibition incubated at 37 degC for 24 hrs by micro broth dilution method; type: functional; conditions: ATCC4698, 24 h
Candida albicans = assay: Antifungal activity against Candida albicans ATCC10231 assessed as growth inhibition incubated at 35 degC for 24 hrs by micro broth dilution method; type: functional; conditions: ATCC10231, 24 h
Staphylococcus aureus [10] = assay: Binding affinity to methicillin-resistant Staphylococcus aureus DNA assessed as induction of DNA intercalation in presence of potassium iodide by fluorescence spectroscopy based Stern-Volmer plot
Staphylococcus aureus [11] = assay: Binding affinity to methicillin-resistant Staphylococcus aureus DNA assessed as induction of DNA intercalation by measuring as 1:1 compound-DNA complex formation in presence of Cu2+ ions by fluorescence spectroscopy
Staphylococcus aureus [12] = assay: Antibacterial activity against methicillin resistant Staphylococcus aureus N315 assessed as growth inhibition incubated at 37 degC for 24 hrs by micro broth dilution method; type: functional; conditions: N315, 24 h

In the case of `Cn1ccnc1SCC(O)CNC1CCN(c2c(F)cc3c(=O)c(C(=O)O)cn(C4CC4)c3c2Cl)C1` (centres undefined), the MIC (Bacillus subtilis) is reported as 0.5 µg/mL (≈ 0.933 µM), the MIC80 (Aspergillus flavus) is reported as 32 µg/mL (≈ 59.7 µM) and the MIC (Staphylococcus aureus [1]) is reported as 0.5 µg/mL (≈ 0.933 µM). For the same molecule, the Ratio (Pseudomonas aeruginosa [2]) was 4, the MIC80 (Saccharomyces cerevisiae) was 16 µg/mL (≈ 29.8 µM) and the MIC80 [3] was 1 µg/mL (≈ 1.87 µM). The Ratio (Pseudomonas aeruginosa [4]) was 64, the Activity [5] was “Active” and the MIC [6] was 0.5 µg/mL (≈ 0.933 µM). For the same molecule, the MIC (Escherichia coli) was 1 µg/mL (≈ 1.87 µM), the MIC80 (Cyberlindnera jadinii) was 32 µg/mL (≈ 59.7 µM) and the MIC (Pseudomonas aeruginosa [7]) was 0.25 µg/mL (≈ 0.466 µM). The Activity (Staphylococcus aureus [8]) was “Dose-dependent effect”, the MIC [9] was 0.5 µg/mL (≈ 0.933 µM) and the MIC (Micrococcus luteus) was 0.5 µg/mL (≈ 0.933 µM). For the same molecule, the MIC80 (Candida albicans) was 0.5 µg/mL (≈ 0.933 µM), the Activity (Staphylococcus aureus [10]) was “Active” and the Activity (Staphylococcus aureus [11]) was “Active”. It also gave an MIC (Staphylococcus aureus [12]) of 0.25 µg/mL (≈ 0.466 µM).
